Entries after “also recorded” stand apart in the source; their conditions may differ. Where a SMILES comes first, the peptide text is derived from it. Bridges are numbered along the chain shown (N, C = ends).
Assays:
[1] = tested on: honey bees (Apis mellifera); experiment: Appetitive olfactory learning (conditioning of proboscis extension reflex); type: in vivo; conditions: for change of conditioned responses in last conditioning trial vs vehicle (GLM coefficient ± standard error): ~200 nl into head haemolymph 1 h before conditioning; for effect on olfactory learning performance, in words: injected into the head before conditioning, range of concentrations, vs vehicle-injected controls, Fig 9
Experimental: For behavioral experiments, bees departing from the hive (mostly foragers) were chosen as they usually show good motivation and learning ability. Each cold-anesthetized animal was introduced into a metal holder and fixed to it in order to restrain all movements of the appendages apart from those of the antennae and proboscis. Each bee was then fed with 5 μl of a sucrose solution (50% w/w in water), and its median ocellus was removed to allow injection of allatostatin into the head capsule. All bees were then placed in a dark, warm (25°C) and humidified compartment for 3 hours, before the experiments began.
The vehicle for allatostatins was a saline solution made of PBS containing the protease blocker, 1 mM PMSF (prepared from a 30mM stock solution in 100% ethanol, final concentration of ethanol 3.3%).
The allatostatins were injected into the head haemolymph after penetrating the median ocellus, either 1 hour before olfactory conditioning or sucrose responsiveness assessment, or immediately after olfactory conditioning. All injections were performed under a binocular microscope. A micromanipulator-controlled Hamilton syringe (Nanofil, equipped with a NF33BV2 needle, WPI) was used to inject approximately 200 nl of peptide solution. To make sure that the solution was properly injected, it was pushed out of the syringe so that a drop was visible and then the drop was put in contact with the haemolymph where it was quickly absorbed thanks to the respiratory movements of the bee. Any bee with excessive bleeding was discarded.
Associative conditioning of the proboscis extension reflex was used to monitor effects of allatostatin treatment on appetitive olfactory learning performance. Olfactory stimuli were prepared shortly before conditioning by inserting a small piece of filter paper soaked with 4μl of pure odorant (from Sigma-Aldrich, Lyon, France) in one of the 8 channels of a custom-made, computer-driven olfactometer (P. Arrufat, Research Center on Animal Cognition, Toulouse, France). Immediately before conditioning, the integrity of the proboscis extension reflex was checked by touching both antennae with a 50% (w/w in water) sucrose solution. Olfactory conditioning of this reflexive response was carried out following a standard protocol consisting of three paired presentations of the odor (conditioned stimulus, CS) with 50% sucrose (the unconditioned stimulus, US) separated by a 10-min interval. Each trial included a familiarization phase in which the bee was placed in the conditioning set up for 13 s before forward pairing of the CS-US. The CS (1-nonanol) was delivered to the bee through an airflow for 4 s, and the US (sucrose solution) for 3 s, with a 1 s CS-US overlap. The US was presented by gently touching the antennae to elicit the PER; as soon as the bee extended its proboscis it was allowed to lick the toothpick. This sequence was controlled by the computer-driven olfactometer.
Functional data (receptor-mediated calcium, cAMP signals and binding) were plotted and regression curves were fitted using the GraphPad Prism software (San Diego, CA). The learning data were analyzed with generalized linear effects modeling (GLM) for binomial data using the R package lme4 [67]. Response levels recorded in the last conditioning trial were used to assess the effect of treatment on learning. For 1-hour memory and generalization tests, effects of allatostatin treatment were compared for each odor tested. Generalized linear mixed effects modeling (GLMM) was also used to analyze responsiveness to sucrose, with concentration and treatment as fixed factors and the bee identity and solution presented (either sucrose or water) as random factors. […] All statistics were generated in R [68].

Apime-ASTA-R = target: T1, Apime-ASTA-R (Apis mellifera, UniProt A0A7M7ILT1); experiment: Intracellular calcium measurement, HEK293 cells expressing Apime-ASTA-R with Gαqi9 chimeric G protein; type: cell-based; conditions: HEK293 with Gαqi9, Fig 4D
T1 sequence (A0A7M7ILT1 1-361): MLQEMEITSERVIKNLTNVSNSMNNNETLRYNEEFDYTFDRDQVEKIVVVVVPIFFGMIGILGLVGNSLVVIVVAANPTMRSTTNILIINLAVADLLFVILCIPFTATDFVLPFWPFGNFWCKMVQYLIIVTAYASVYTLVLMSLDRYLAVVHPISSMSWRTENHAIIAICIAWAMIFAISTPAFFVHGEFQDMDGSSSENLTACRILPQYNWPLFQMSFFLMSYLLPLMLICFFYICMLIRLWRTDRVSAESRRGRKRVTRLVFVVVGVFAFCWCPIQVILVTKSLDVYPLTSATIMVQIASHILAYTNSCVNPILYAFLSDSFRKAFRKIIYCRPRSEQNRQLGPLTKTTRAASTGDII
Experimental: This vector contains an ATG initiation codon in phase with a mammalian signal peptide sequence of metabotropic glutamate receptor 5 to address receptor protein to the cell membrane, with a hemagglutinin sequence (TAG HA), and MluI and HindIII restriction sites used for cloning. The coding regions of the genes of interest were PCR amplified from cDNA template. After extraction from whole brains, 1 μg of total RNA was reverse-transcribed with random primers. […] PCR reactions included: 30s at 98°C, then 30 cycles of 10s at 98°C, 30s at 60°C, 1 min at 72°C and finally, 5 minutes at 72°C. Cloning required several amplification and digestion steps to insert the full cDNA sequences in the vector.
In all cases, 2 μg of plasmid DNA encoding the Gαqi9 chimeric G protein was included to enable artificial coupling of the receptors to phospholipase C. Electroporation (250 V, 800 μF, Biorad GenePulser X-cell) was performed in a total volume of 300 μl of electroporation buffer (50 mM K2HPO4, 20 mM CH3COOK, 20 mM KOH, 26.5 mM MgSO4, pH 7.4). After electroporation, cells were resuspended in 10 ml of culture medium and split (100 μl/well) into polyornithine-coated (Sigma #P3655), black-walled, clear bottom 96-well plates (Greiner bio-one #655090) and grown for a further 48 h prior to analyzing receptor properties. All products used for cell culture were purchased from Invitrogen Life Technologies.
Cells were washed with freshly prepared 20 mM Hepes, 1 mM MgSO4, 3.3 mM Na2CO3, 1.3 mM CaCl2, 0.1% BSA, 2.5 mM probenecid in 1X Hank's balanced salt solution (Gibco #14185), pH7.4 buffer and loaded with 1 μM Ca^2+-sensitive fluorescent dye Fluo-4 AM (Invitrogen # F14202) for 1 h at 37°C. Cells were washed once and incubated with 50 μl of buffer. A plate was prepared with the various concentrations of peptides to be tested, and 50 μl of 2X concentrated-drug solution was added in each well after 20 s of recording. Fluorescence signals (excitation 485 nm, emission 525 nm) were measured by using the fluorescence microplate reader Flexstation (Molecular Devices) at sampling intervals of 1.5 s for 60 s. All represented data correspond to means ± standard deviation (SD) from experiments performed in triplicate.
This method allows detecting ligand-induced activation of the receptor by measuring the release of intracellular calcium.

[2] = 10^-6M, ASTA p<0.01, ASTC p<0.05, ASTCC p<0.001

SMILES	change of conditioned responses in last conditioning trial vs vehicle (GLM coefficient ± standard error) ([1]; 10^-3M, ASTCC p<0.05)	change of conditioned responses in last conditioning trial vs vehicle (GLM coefficient ± standard error) ([1]; 10^-4M, ASTA p<0.01, ASTCC p<0.01)	change of conditioned responses in last conditioning trial vs vehicle (GLM coefficient ± standard error) [1, 2]	change of conditioned responses in last conditioning trial vs vehicle (GLM coefficient ± standard error) ([1]; 10^-7M, ASTCC p<0.001)	effect on olfactory learning performance, in words [1]	effect on olfactory learning performance, in words ([1]; listed as ASTCC)	receptor activation (calcium), in words (Apime-ASTA-R)	change of conditioned responses in last conditioning trial vs vehicle (GLM coefficient ± standard error) ([1]; 10^-5M, ASTA p<0.05, ASTC p<0.05)	effect on olfactory learning performance, in words ([1]; listed as ASTC)
CC(C)[C@@H]1NC(=O)[C@H](C)NC(=O)[C@H](CC(N)=O)NC(=O)[C@H](Cc2ccccc2)NC(=O)[C@H](Cc2ccc(O)cc2)NC(=O)[C@@H](NC(=O)[C@H](CCCNC(=N)N)NC(=O)[C@H](Cc2c[nH]c3ccccc23)NC(=O)[C@H](Cc2ccc(O)cc2)NC(=O)[C@@H](NC(=O)[C@H](CCCNC(=N)N)NC(=O)CNC(=O)[C@H](CCCCN)NC(=O)[C@H](C)NC(=O)[C@H](CCC(N)=O)NC(=O)CN)C(C)C)CSSC[C@@H](C(=O)N[C@@H](Cc2ccccc2)C(=O)O)NC(=O)[C@H]([C@@H](C)O)NC1=O [Apime-ASTCC] (H-GQAKGRVYWRCYFNAVTCF-OH; disulfide 11-18; N-terminus assumed)	-1.04±0.45	-1.35±0.44	-1.75±0.43	-1.59±0.44	the effects of each peptide were dose-dependent	apparent at much lower doses than effects of ASTC; also recorded: significant, dose-dependent (yet not linear) decrease in the percentage of bees that learned	not activated by either ASTC or ASTCC	–	–
CC(C)[C@@H]1NC(=O)[C@H](C)NC(=O)[C@H](CC(N)=O)NC(=O)[C@H](Cc2ccccc2)NC(=O)[C@H](C)NC(=O)[C@@H](NC(=O)[C@H](CCC(N)=O)NC(=O)[C@H](CCCCN)NC(=O)[C@H](Cc2c[nH]c3ccccc23)NC(=O)[C@H](Cc2ccc(O)cc2)NC(=O)[C@@H](N)CO)CSSC[C@@H](C(=O)N[C@@H](Cc2ccccc2)C(N)=O)NC(=O)[C@H](CO)NC1=O [Apime-ASTC] (H-SYWKQCAFNAVSCF-NH2; disulfide 6-13; N-terminus assumed)	–	–	-0.91±0.41	–	the effects of each peptide were dose-dependent	–	not activated by either ASTC or ASTCC	-0.84±0.42	significant, dose-dependent (yet not linear) decrease in the percentage of bees that learned

Source: article PMC4704819, “Honey Bee Allatostatins Target Galanin/Somatostatin-Like Receptors and Modulate Learning: A Conserved Function?” (PLoS ONE, 2016)
